These results are taken from patent publication US20080253996A1, “Use of Sdf-1 for the Treatment and/or Prevention of Neurological Diseases” (LABORATORIES SERONO SA, priority 2005, published 2008).

The test system of assay [1] is primary mixed cortical cultures stimulated with LPS. In words: Cytokine release (TNF-α, IL-6) from LPS stimulated primary mixed cortical cultures. The assay is classed as cell-based, mouse. As for the experimental part: Culturing of primary cells was performed as described (Lubetzki et al., 1993) using brain tissue from embryos isolated from NMRI mice at 16 days post-coitum. Cerebral hemispheres were dissected from embryo brains, dissociated via trypsin digestion and the single cell suspension was seeded at 5×10^4 cells in 50 μl myelination medium per well onto BioCoat® poly-L-lysine coated 96-well plates (356516, Becton Dickinson). The myelination medium consisted of Bottenstein-Sato medium (Bottenstein and Sato, 1979; Sadir et al., 2001), supplemented with 1% FCS, 1% penicillin-streptomycin solution (Seromed) and recombinant platelet-derived growth factor AA (PDGF-AA, R&D Systems) at 10 ng/mL.
For testing the effects of SDF-1α and SDF-1α variant (as defined in SEQ ID NO: 4) on LPS stimulated cultures, cells were allowed to grow for two weeks. At day 14 cells were pre-incubated with increasing concentrations (0.001, 0.1 and 10 ng/ml) of the corresponding proteins into 25 μl of medium for three hours at 37° C. and 10% CO2. LPS was then supplemented to the cells at the concentration of 5 ng/ml into 25 μl of medium to obtain a final volume of 100 μl and incubated for 48 hours. Supernatants were collected at day 16 and the levels of TNF-α and IL-6 (the major cytokines released by activated microglia) were measured via specific ELISAs purchased from R&D systems (DuoSet mouse TNF-α ELISA DY410, mouse IL-6 ELISA DY406).
Global analysis of the data was performed using one-way ANOVA. Dunnett's test was used further, and data were compared to the “untreated cells”. The level of significance was set at a: p<0.001; b or **: p<0.01; c or *: p<0.05; d: p<0.1. The results were expressed as mean ±standard error of the mean (s.e.m.).

Assay [2] deals with leukocytes recruited in the peritoneal cavity. The assay is described as follows: In vivo model of peritoneal cell recruitment. On the set-up: species or system mouse. The following applies: 4 μg i.p. in Balb/C mice, 4 hours post injection. On the procedure:
8-12 week old, female Balb/C mice (Janvier, France) were injected intra peritoneally (i.p.) with 200 μl NaCl (0.9%, LPS free) or chemokine 4 μg (WT SDF-1α or SDF-1α variant according to SEQ ID NO:4 diluted in 200 μl NaCl (0.9%, LPS free). […] of WT or mutant SDF-1α, mice were sacrificed by CO2 asphyxiation, the peritoneal cavity was washed with 3×5 ml ice cold PBS and the total lavage was pooled for individual mice. Total cells collected were counted by haemocytometer (Neubauer, Germany).

Where [3] appears, read: pre-incubation 3 h (SDF proteins 0.001, 0.1, 10 ng/ml; IL-10 10 ng/ml; dexamethasone 25 pM), then LPS 5 ng/ml 48 h, ELISA, compared to untreated cells.

“SDF-1α: Human recombinant chemokine SDF-1α (SEQ ID NO: 1), produced in house, expressed in E. Coli cells”: in assay [1] (setting [3]), the “levels of IL-6 secretion” value is “significantly decreased” and the “levels of TNF-α secretion” value was “significantly decreased”. For the same substance, the “best concentration for decrease of TNF-α and IL-6 secretion” value in assay [1] (tested 0.001, 0.1 and 10 ng/ml, LPS 5 ng/ml 48 h) amounted to 10 ng/mL. In assay [2], the “leukocyte recruitment in the peritoneal cavity” value is reported as “recruits leukocytes”.
